Assays:
[1] = test system: cows; test: In vivo experiment, single oral bolus in cows: serum calcium and phosphate
Description: The control group only received pectin.

[2] = in vivo; conditions: female, brown, Fleckvieh and Holstein, cow, serum, po, 500 ng
Procedure: Twenty-five cows of the races brown, Fleckvieh and Holstein of a weight of approximately 500-600 kg weight and including lactating and non-lactating subjects were allocated to 5 treatment groups as detailed in Table 6 blow. The animals were given a single dose of the test preparation orally per bolus. Blood was taken at time 0 (before application) and at days 1, 2, 3, 4, 5, 7, 9 and 11 following application. From the blood, serum was prepared and calcium (total), phosphate and 1,25-(OH)2 vitamin D3 was analyzed according to established clinico-chemical methods.
Treatment: all test preparations were applied to the animal as one single bolus in a gelatine capsule (length 7 cm, diameter 2.2 cm and volume 24 mL, Capsula GmbH, Ratingen, Germany) with the aid of a usual bolus applicator. The volume that was not filled with tablets was filled up with pectin as inert excipient. The control group only received pectin.
The boluses contained, in accordance with the treatment group, instant release tablets as described in Example 3 (groups 2 and 4) and retard release tablets as prepared in Example 4 (groups 1 and 4).

[3] = day 0 (before application), n = 5, single oral bolus
[4] = day 2, n = 5, single oral bolus
[5] = day 3, n = 5, single oral bolus
[6] = day 4, n = 5, single oral bolus
[7] = day 5, n = 5, single oral bolus
[8] = day 7, n = 5, single oral bolus
[9] = day 9, n = 5, single oral bolus
[10] = day 11, n = 5, single oral bolus

concentration at 0 day [2]: 0.02 ng/mL | concentration at 1 day [2]: 0.243 ng/mL | concentration at 2 day [2]: 0.15 ng/mL | concentration at 3 day [2]: 0.056 ng/mL | concentration at 4 day [2]: 0.04 ng/mL | concentration at 5 day [2]: 0.046 ng/mL | concentration at 7 day [2]: 0.03 ng/mL | concentration at 9 day [2]: 0.023 ng/mL | concentration at 11 day [2]: 0.025 ng/mL
SMILES: C=C1/C(=C\C=C2/CCC[C@]3(C)[C@@H]([C@H](C)CCCC(C)(C)O)CC[C@@H]23)C[C@@H](O)C[C@@H]1O [Group 3, 1,25-dihydroxyvitamin D3]
Serum calcium (mean ± standard deviation) [1, 3]: 2.40 ± 0.2 ^ mmol/L | Serum phosphate (mean ± standard deviation) [1, 3]: 2.30 ± 0.07 mmol/L | Serum calcium (mean ± standard deviation) ([1]; day 1, n = 5, single oral bolus): 2.64 ± 0.05 E mmol/L | Serum calcium (mean ± standard deviation) [1, 4]: 2.67 ± 0.09 Ed mmol/L | Serum phosphate (mean ± standard deviation) [1, 4]: 2.81 ± 0.25 ED mmol/L | Serum calcium (mean ± standard deviation) [1, 5]: 2.72 ± 0.09 E mmol/L | Serum phosphate (mean ± standard deviation) [1, 5]: 3.05 ± 0.19 Ed mmol/L | Serum calcium (mean ± standard deviation) [1, 6]: 2.72 ± 0.06 E mmol/L | Serum phosphate (mean ± standard deviation) [1, 6]: 3.24 ± 0.34 E mmol/L | Serum calcium (mean ± standard deviation) [1, 7]: 2.61 ± 0.02 E mmol/L | Serum phosphate (mean ± standard deviation) [1, 7]: 2.60 ± 0.32 E mmol/L | Serum calcium (mean ± standard deviation) [1, 8]: 2.57 ± 0.06 e^ mmol/L | Serum phosphate (mean ± standard deviation) [1, 8]: 2.43 ± 0.23 e mmol/L | Serum calcium (mean ± standard deviation) [1, 9]: 2.56 ± 0.09 ^ mmol/L | Serum phosphate (mean ± standard deviation) [1, 9]: 2.05 ± 0.44 mmol/L | Serum calcium (mean ± standard deviation) [1, 10]: 2.45 ± 0.02 ^ mmol/L | Serum phosphate (mean ± standard deviation) [1, 10]: 2.10 ± 0.16 mmol/L
